Data taken from the NIST ThermoML archive (doi:10.1021/je300799f).

Assay: xn = mol fraction of the nth substance listed
Settings: 101 kPa, Liquid, Vibrating tube method

CCCC(=O)OCC [ethyl butanoate] + CCCCCCC
Settings	mass density [kg/m3]
288.15 K, x1 = 0.0502	696.39
288.15 K, x1 = 0.0918	703.35
288.15 K, x1 = 0.1473	712.8
288.15 K, x1 = 0.2022	722.42
288.15 K, x1 = 0.2465	730.35
288.15 K, x1 = 0.288	737.84
288.15 K, x1 = 0.3987	758.41
288.15 K, x1 = 0.4488	767.94
288.15 K, x1 = 0.5008	778.03
288.15 K, x1 = 0.5456	786.84
288.15 K, x1 = 0.6023	798.22
288.15 K, x1 = 0.6584	809.63
288.15 K, x1 = 0.6999	818.26
288.15 K, x1 = 0.7486	828.54
288.15 K, x1 = 0.8042	840.42
288.15 K, x1 = 0.8481	850.01
288.15 K, x1 = 0.901	861.58
288.15 K, x1 = 0.9347	869.11
288.15 K, x1 = 0.9527	873.2
288.15 K, x1 = 1	884.01
298.15 K, x1 = 0.0522	688.18
298.15 K, x1 = 0.0904	694.54
298.15 K, x1 = 0.1404	703.05
298.15 K, x1 = 0.1901	711.58
298.15 K, x1 = 0.2539	722.68
298.15 K, x1 = 0.2962	730.22
298.15 K, x1 = 0.3543	740.87
298.15 K, x1 = 0.4	749.31
298.15 K, x1 = 0.443	757.44
298.15 K, x1 = 0.5517	778.51
298.15 K, x1 = 0.6018	788.45
298.15 K, x1 = 0.648	797.84
298.15 K, x1 = 0.6976	808.02
298.15 K, x1 = 0.7463	818.17
298.15 K, x1 = 0.7884	827.06
298.15 K, x1 = 0.8473	839.64
298.15 K, x1 = 0.9054	852.26
298.15 K, x1 = 0.9524	862.74
298.15 K, x1 = 1	873.5
308.15 K, x1 = 0.0461	678.42
308.15 K, x1 = 0.0952	686.44
308.15 K, x1 = 0.1445	694.69
308.15 K, x1 = 0.2034	704.7
308.15 K, x1 = 0.2497	712.78
308.15 K, x1 = 0.3081	723.17
308.15 K, x1 = 0.3441	729.57
308.15 K, x1 = 0.406	741.01
308.15 K, x1 = 0.4563	750.35
308.15 K, x1 = 0.5053	759.76
308.15 K, x1 = 0.5505	768.46
308.15 K, x1 = 0.6038	778.99
308.15 K, x1 = 0.6498	788.17
308.15 K, x1 = 0.7026	798.87
308.15 K, x1 = 0.7544	809.6
308.15 K, x1 = 0.788	816.69
308.15 K, x1 = 0.8424	828.13
308.15 K, x1 = 0.9009	840.82
308.15 K, x1 = 0.9512	851.86
308.15 K, x1 = 1	862.85
318.15 K, x1 = 0.0532	670.78
318.15 K, x1 = 0.095	677.56
318.15 K, x1 = 0.1397	684.91
318.15 K, x1 = 0.2087	696.59
318.15 K, x1 = 0.2565	704.87
318.15 K, x1 = 0.3048	713.3
318.15 K, x1 = 0.3608	723.3
318.15 K, x1 = 0.4046	731.26
318.15 K, x1 = 0.4532	740.3
318.15 K, x1 = 0.5065	750.34
318.15 K, x1 = 0.5517	759.04
318.15 K, x1 = 0.6007	768.46
318.15 K, x1 = 0.6492	778.12
318.15 K, x1 = 0.6934	787.02
318.15 K, x1 = 0.739	796.28
318.15 K, x1 = 0.7947	807.72
318.15 K, x1 = 0.8554	820.65
318.15 K, x1 = 0.8861	827.23
318.15 K, x1 = 0.9515	841.48
318.15 K, x1 = 1	852.26
328.15 K, x1 = 0.0535	662.06
328.15 K, x1 = 0.0975	669.12
328.15 K, x1 = 0.1485	677.41
328.15 K, x1 = 0.1785	682.4
328.15 K, x1 = 0.2367	692.21
328.15 K, x1 = 0.3034	703.69
328.15 K, x1 = 0.359	713.56
328.15 K, x1 = 0.4538	730.76
328.15 K, x1 = 0.5087	741
328.15 K, x1 = 0.5511	749.04
328.15 K, x1 = 0.6093	760.27
328.15 K, x1 = 0.6471	767.65
328.15 K, x1 = 0.6967	777.52
328.15 K, x1 = 0.739	786.07
328.15 K, x1 = 0.7999	798.54
328.15 K, x1 = 0.8397	806.83
328.15 K, x1 = 0.9086	821.54
328.15 K, x1 = 0.9533	831.27
328.15 K, x1 = 1	841.55
